# Assay results published in PubChem BioAssay AID489040 (Sanford-Burnham Center for Chemical Genomics, 2010).
# pEC50: −log10 of the molar value. Calls of active or inactive are those of the source.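 Rule for the calls: active = mean half-maximal activating concentration from the dose-response fit at or below a set limit; inactive = the rest.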
# Biological target: CHO-XBP1 luciferase reporter, IRE1-XBP1 UPR activation
# Test: activators of IRE1-XBP1 UPR arm, dose response, counter-screen for apoptotic UPR arm activators, CHO-XBP1 cells, luminescence (AID 489040);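 note: reporter read after six hours of compound exposure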
Structure (SMILES),EC50,pEC50
COc1ccc(N=c2oc3c(OC)cccc3cc2C(=O)NCc2ccco2)c(OC)c1,inactive,–
C/C(=N\NC(=O)c1ccccc1OCc1ccc(F)cc1)c1ccccn1,> 80 µM (inactive),–
CN1CCN(c2ccc(NC(=O)c3ccc([N+](=O)[O-])o3)cc2Cl)CC1,> 80 µM (inactive),–
CN1CCN(Cc2cc(COCc3ccccc3)c3cccnc3c2O)CC1,inactive,–
Cc1ccc(NC(=O)c2ccc(N/N=C/c3cccc(O)c3)c([N+](=O)[O-])c2)cc1,> 80 µM (inactive),–
C/C(CCC12CC3CC(CC(C3)C1)C2)=N\NC(N)=S,> 80 µM (inactive),–
Cc1c(C#N)c(NC(=O)CCl)n(Cc2cccs2)c1C,> 80 µM (inactive),–
COc1ccc(N=C2S/C(=C\c3ccc(N4CCOCC4)o3)C(=O)N2CCc2c[nH]c3ccccc23)cc1,> 80 µM (inactive),–
O=CC1=C(c2ccccc2)Oc2ccccc2O1,> 80 µM (inactive),–
COC(=O)Oc1ccc(/C=C/C(=O)OC(C)C)cc1OC(=O)OC,> 80 µM (inactive),–
COc1ccc(OC)c(N=Cc2c(O)c3ccccc3oc2=O)c1,–,4.92
Cc1cccc(Nc2nc3c(S(=O)(=O)c4ccccc4)nnn3c3ccccc23)c1C,inactive,–
CCOC(=O)c1cnc(-n2nc(C)cc2C)nc1NC1CCCCC1,> 80 µM (inactive),–
COc1cc(C(=O)Sc2ccc(Cl)cc2)cc(OC)c1OC,> 80 µM (inactive),–
CSC(=S)N/N=C(\C)c1ccccc1,> 80 µM (inactive),–
COc1ccc(-c2cc(C(F)F)n3ncc(C(=O)n4ccnc4C)c3n2)cc1,> 80 µM (inactive),–
CCOc1ccc2c(c1)C(=NNC(=O)c1ccncc1)c1cc(OCC)ccc1-2,> 80 µM (inactive),–
C/C(=N\NC(=O)c1ccc(Cl)c(Cl)c1)c1ccccn1,> 80 µM (inactive),–
COc1ccc2[nH]cc(C(=O)CCl)c2c1,> 80 µM (inactive),–
CCOC(=O)C(=Cc1ccc(-n2cncn2)cc1)C(=O)OCC,> 80 µM (inactive),–
COc1cc(/C=C/C(=O)c2ccc3c(c2)OCCO3)cc(Br)c1OCC(=O)N(C)C,> 80 µM (inactive),–
O=C1/C(=C/c2ccc(N3CCOCC3)o2)SC(=Nc2ccccc2)N1CCc1c[nH]c2ccccc12,> 80 µM (inactive),–
COc1cc(NC(=O)c2cncc(-c3ccc(C#N)cc3)c2)cc(C(=O)Nc2cccc(C(F)(F)F)c2)c1,–,4.71
CCN(CC)c1ccc(/C=C2\C(=O)N(c3nnc(C)c(=O)[nH]3)N=C2C)cc1,> 80 µM (inactive),–
Cn1c2ccccc2c2cc(/C=N/NC(=O)c3cc(O)ccc3O)ccc21,> 80 µM (inactive),–

Structure (SMILES),EC50,pEC50
CC(C)N=c1scc(-c2ccco2)n1/N=C/c1ccc(O)c(O)c1,–,5.35
S=C1SCN(Cc2ccccn2)CN1Cc1ccco1,> 80 µM (inactive),–
CCOC(=O)c1c(-c2ccc(-c3ccccc3)cc2)csc1NC(=O)CNCCN(C)C,> 80 µM (inactive),–
CCOc1ccc(N2C(=O)CC(N(O)c3ccccc3)C2=O)cc1 (centres undefined),> 80 µM (inactive),–
O=C(Nc1ccc(C(F)(F)F)cc1)c1cc(-c2cccnc2)nc2ccc(Br)cc12,–,5.20
Cc1cccc(C)c1NC(=O)C(Cl)C(=O)c1ccccc1 (centres undefined),> 80 µM (inactive),–
Cc1ccc(C(=O)C(C(=O)/C=C/c2ccccc2)=C2SCCCS2)cc1,> 80 µM (inactive),–
O=C(Nc1ccc(-c2nc3cc(NC(=O)c4cccs4)ccc3o2)cc1)c1cccs1,–,5.19
O=C1C=CC(=O)C(C2=C3C(=O)N(CCc4ccccc4)CC(=O)N3CCC2)=C1,> 80 µM (inactive),–
COCCN=c1scc(-c2cccs2)n1/N=C/c1ccc(O)c(O)c1O,> 80 µM (inactive),–
COc1cccc2sc(Nc3nnc(-c4cccs4)o3)nc12,> 80 µM (inactive),–
O=C(/C(=N/N=C/c1ccc(O)c(O)c1)c1ccccc1)c1ccccc1,> 80 µM (inactive),–
COc1ccc(-n2nc(C#N)c(Cl)cc2=O)cc1,> 80 µM (inactive),–
O=C(Nc1ccc(O)c2c(=O)cc(-c3cccc(Cl)c3)oc12)c1ccccc1Cl,> 80 µM (inactive),–
O=C(Oc1c(CN2CCOCC2)cc(Cl)c2cccnc12)c1ccc(F)cc1,> 80 µM (inactive),–
CC(C)(C)C(=O)OCc1nc(-c2ccc(O)c(O)c2)cs1,> 80 µM (inactive),–
Cc1nc(NC(=O)/C=C/c2ccccc2)n[nH]1,> 80 µM (inactive),–
COc1ccc2c(C(=O)CCl)c[nH]c2c1,> 80 µM (inactive),–
Cc1ccc(/C=C/C(=O)c2ccc([N+](=O)[O-])o2)cc1,> 80 µM (inactive),–
CCc1ccc(N2C(=O)NC(=O)/C(=C\C=C\c3ccco3)C2=O)cc1,> 80 µM (inactive),–
O=C(COc1ccc(/C=N/NC(=O)c2cc3ccccc3o2)cc1Br)Nc1ccccc1,–,5.33
Oc1c(CN2CCN(c3ccc(F)cc3)CC2)cc(Cl)c2cccnc12,> 80 µM (inactive),–
Cn1nc([N+](=O)[O-])c(C(C#N)c2ccccn2)c(Cl)c1=O (centres undefined),> 80 µM (inactive),–
N#CC1(C#N)COC23CCCCC2C1(C#N)C(=N)O3 (centres undefined),> 80 µM (inactive),–
